Source: patent publication US7704986B2, “Vitamin D3 analogues for the prevention and treatment of bone disorders” (K.U. Leuven Research and Development, priority 2004, dated 2010)

Columns and labels:
[1] = system: normal (no surgery) C3H female mice; assay: Oral gavage versus i.p. in normal (no surgery) mice, 5 weeks; assay type: in vivo; details: for BMC total body, SHAM + vitaminD analogue vs. SHAM + vehicle (= 100%) in % / BMD spine, SHAM + vitaminD analogue vs. SHAM + vehicle (= 100%) in % / BMD total body, SHAM + vitaminD analogue vs. SHAM + vehicle (= 100%) in %: DEXA, 5 weeks, increase (↑)
Protocol: Besides injecting the compound MV2 intraperitoneally (results in table 3), it was also given orally by gavage in normal (no surgery) C3H female mice and the biological effects were investigated as described before. MV2 given orally at a dose of 1 μg/kg/2days (3 times per week) during 5 weeks was as effective as intraperitoneal injections at a dose of 0.5 μg/kg/2 days (4 times per week) during 5 weeks in C3H mice (Table 4).

NMRI mice = assay: In vivo activity: serum and femur calcium after 7 daily i.p. injections; details: dose 0.2 μg/kg/d i.p., 7 days; * in cell = P < 0.05
Protocol: Eight weeks old, male NMRI mice were fed a vitamin D-replete diet (0.2% calcium, 1% phosphate, 2000 U vitamin D/kg; Hope Farms, Woerden, The Netherlands). Groups of six mice were intraperitoneally injected daily during 7 consecutive days with different doses of 1,25(OH)2D3 (0.2 and 0.4 μg/kg/day) or analogues. The control group was injected with vehicle (arachis oil). The average weight of each group of 6 mice was determined at the beginning and at the end of the experiment. The following parameters were evaluated: serum calcium and femur calcium. Serum calcium was measured by a microcolorimetric assay (Sigma, St. Louis, Mo.). Femurs were removed and femur calcium content was measured in HCl-dissolved bone ash (obtained by heating for 24 hours in an oven at 100° C.), using the same technique as for serum calcium. Student's t-tests were carried out to detect significant differences; p<0.05 was accepted as significant. […]

[2] = 0.5 μg/kg/2 days i.p. 4 times per week
[3] = 1 μg/kg/2 days orally 3 times per week

C[C@H](CC#CC(O)(C(F)(F)F)C(F)(F)F)[C@@]1(C)CC[C@@H](/C=C/C=C2C[C@@H](O)C[C@H](O)C2)C1(C)C [MV2, (1R,3R)-5-((E)-3-((1S,3R)-3-((1R)-6,6,6-trifluoro-5-hydroxy-1-methyl-5-trifluoromethyl-3-hexynyl)-2,2,3-trimethylcyclopentyl)-2-propenylidene)cyclohexane-1,3-diol]
BMC total body, SHAM + vitaminD analogue vs. SHAM + vehicle (= 100%) in % [1, 2]: 7 ↑ % | BMD spine, SHAM + vitaminD analogue vs. SHAM + vehicle (= 100%) in % [1, 2]: 9 ↑ % | BMD total body, SHAM + vitaminD analogue vs. SHAM + vehicle (= 100%) in % [1, 2]: 4 ↑ % | BMC total body, SHAM + vitaminD analogue vs. SHAM + vehicle (= 100%) in % [1, 3]: 10 ↑ % | BMD spine, SHAM + vitaminD analogue vs. SHAM + vehicle (= 100%) in % [1, 3]: 14 ↑ % | BMD total body, SHAM + vitaminD analogue vs. SHAM + vehicle (= 100%) in % [1, 3]: 5 ↑ % | serum calcium levels ([1]; analogue treated mice, 5 weeks (control mice 11.43±0.78)): 11.36 ± 0.56 mg/dL | Serum calcium vs. control (%) (NMRI mice): 97% | femur calcium vs. control (%) (NMRI mice): 112* %
